Our source for the TGI values is PubChem BioAssay (NCI).

Among the test systems are HOP-92 NSCLC; OVCAR-8 ovarian; UO-31 renal; SF-539 CNS; K-562 leukemia; HT29 colon; SN12C renal; 786-0 renal; RXF 393 renal; A498 renal.
What all share (assay): inhibition of tumour cell growth, NCI panel, 48 h

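Exposure lasted 48 hours, with cells grown in 96-well plates and compounds tested at five concentrations. At the TGI there is no net growth.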

In the case of `COc1ccccc1NCC(=O)Nn1c(C)nc2ccc(S(=O)(=O)Nc3ccccc3OC)cc2c1=O`, the TGI in the test on HOP-92 NSCLC, with OVCAR-8 ovarian, in the test with UO-31 renal, in the test on SF-539 CNS, in the test with K-562 leukemia and in the test with HT29 colon was over 100 µM throughout. Also, the TGI in the test on SN12C renal and with 786-0 renal was over 100 µM in each case.

As to `c1ccc(C2[C@@H]3CCCc4ccccc4C3=NN2c2ccccc2)cc1` (some centres not stated), the TGI with OVCAR-8 ovarian, in the test on RXF 393 renal, with UO-31 renal, in the test with K-562 leukemia, in the test on HT29 colon and in the test on A498 renal was over 100 µM in each case. The TGI in the test on SN12C renal and in the test on 786-0 renal was over 100 µM throughout.

Regarding `Cc1ccc2c(=O)c(-c3n[nH]c(=S)s3)c[nH]c2n1`, the TGI in the test on OVCAR-8 ovarian, with RXF 393 renal, in the test with UO-31 renal, in the test on K-562 leukemia, in the test on HT29 colon and in the test with A498 renal was over 100 µM in each case. For the same compound, the TGI in the test on SN12C renal and in the test on 786-0 renal was over 100 µM each time.

Consider `COc1ccc(N2C(=O)C3CC4=CC(=O)C[C@H]4[C@H]32)cc1` (some centres not stated), for which the TGI in the test on OVCAR-8 ovarian, in the test with RXF 393 renal, with UO-31 renal, with K-562 leukemia, in the test with A498 renal and in the test on SN12C renal was over 100 µM in each case. The compound further displayed a TGI with 786-0 renal of over 100 µM.

As to `OC(c1ccccc1)(c1cccnc1)C(O)(c1ccccc1)c1cccnc1` (configuration not stated), the TGI with HOP-92 NSCLC, with OVCAR-8 ovarian, in the test on RXF 393 renal, with UO-31 renal, with SF-539 CNS and in the test with HT29 colon was over 100 µM in each case. Besides, the TGI in the test on SN12C renal and in the test on 786-0 renal was over 100 µM in each case.

With `CCN(CC)CCC(=O)c1ccc(Oc2ccc(F)cc2)cc1`, the TGI is 34 µM with HOP-92 NSCLC; 57.6 µM in the test with OVCAR-8 ovarian; 30.5 µM in the test with RXF 393 renal; 31.8 µM in the test with SF-539 CNS; over 100 µM with K-562 leukemia; 38.6 µM with HT29 colon. Further, the figures for the TGI in the test with SN12C renal and in the test with 786-0 renal were 32.1 µM and 28 µM, respectively.

Consider `Cc1ncc([N+](=O)[O-])n1CCNC(=O)CCCCCn1ccnc1[N+](=O)[O-]`, for which the TGI with OVCAR-8 ovarian, in the test with UO-31 renal, in the test on SF-539 CNS, in the test with K-562 leukemia, in the test on HT29 colon and with A498 renal was over 100 µM each time. The TGI in the test on SN12C renal and in the test on 786-0 renal was over 100 µM throughout.

As to `CC(=O)CC(=O)/C=C/c1cccs1`, the TGI in the test on OVCAR-8 ovarian, in the test on UO-31 renal, in the test with SF-539 CNS, in the test with K-562 leukemia, with HT29 colon and in the test on A498 renal was over 100 µM in each case. In addition, the TGI in the test with SN12C renal and with 786-0 renal was over 100 µM throughout.

With `COc1ccc2c(c1)-c1[nH]c3ccccc3c1CC2`, the TGI in the test with HOP-92 NSCLC was 31.8 µM; in the test with OVCAR-8 ovarian, 25.1 µM; in the test with UO-31 renal, 29.5 µM; in the test on SF-539 CNS, 31.2 µM; in the test with K-562 leukemia, over 100 µM; in the test with HT29 colon, 22.9 µM. For the same compound, the TGI in the test with SN12C renal worked out at 29.9 µM; with 786-0 renal, 32.2 µM.

Regarding `O=C1N[C@@H](COc2ccc(C=Nc3ccc(CCc4ccc(N=Cc5ccc(OC[C@@H]6COC(=O)N6)cc5)cc4)cc3)cc2)CO1`, the TGI in the test on OVCAR-8 ovarian, in the test on RXF 393 renal, in the test with UO-31 renal, in the test with K-562 leukemia, with HT29 colon and in the test on A498 renal was over 100 µM throughout. In addition, the TGI in the test on SN12C renal and with 786-0 renal was over 100 µM each time.

For `NC(=O)N/N=C(/c1nc2ccc([N+](=O)[O-])cc2[nH]c1=O)C(O)c1ccco1` (configuration not stated), the TGI with HOP-92 NSCLC was over 100 µM; with OVCAR-8 ovarian, over 100 µM; in the test with RXF 393 renal, over 100 µM; in the test on UO-31 renal, over 100 µM; in the test on SF-539 CNS, 30.9 µM; in the test with K-562 leukemia, over 100 µM. The TGI with HT29 colon was over 100 µM; in the test with SN12C renal it was 33.5 µM; with 786-0 renal it was over 100 µM.

With `O=C1NC2(C=Cc3c(ccc4ccccc34)O2)Oc2ccccc21` (configuration not stated), the TGI was over 100 µM with OVCAR-8 ovarian; 43.3 µM with RXF 393 renal; 9.41 µM with UO-31 renal; 50.2 µM in the test on SF-539 CNS; over 100 µM in the test on K-562 leukemia; 30.3 µM with HT29 colon. The TGI in the test with SN12C renal is 63.4 µM; in the test on 786-0 renal, over 100 µM.

Consider `C=CCN1CCC2(CC1)NC(=O)c1ccccc1O2`, for which the TGI with HOP-92 NSCLC, in the test on OVCAR-8 ovarian, with RXF 393 renal, with UO-31 renal, with SF-539 CNS and in the test with K-562 leukemia was over 100 µM in each case. The TGI in the test on HT29 colon, in the test on SN12C renal and in the test on 786-0 renal was over 100 µM each time.

On to `C[N+](C)(N)c1nc(N)c(C#N)c(C#N)c1C#N`, for which the TGI in the test with OVCAR-8 ovarian, in the test on RXF 393 renal, with UO-31 renal, in the test on SF-539 CNS, in the test on K-562 leukemia and with HT29 colon was over 10 µM throughout. Also, the TGI in the test on A498 renal and in the test on SN12C renal was over 10 µM throughout.

With `O=P1(c2ccccc2)C2=CCC=CC2C(c2ccccc2)N1Cc1ccccc1` (configuration not stated), the TGI is 26.6 µM in the test with HOP-92 NSCLC; 38.1 µM with OVCAR-8 ovarian; 25.8 µM in the test on UO-31 renal; 31.5 µM in the test with SF-539 CNS; 35.5 µM with K-562 leukemia; 24.2 µM in the test on HT29 colon. Further, the TGI with SN12C renal came to 31.5 µM; in the test on 786-0 renal, 29.4 µM.

As to `CCOP(=O)(OCC)C(C)(C)OC(=O)NC#N`, the TGI with HOP-92 NSCLC, in the test on OVCAR-8 ovarian, with RXF 393 renal, in the test on UO-31 renal, in the test on SF-539 CNS and with K-562 leukemia was over 100 µM throughout. Moreover, the TGI in the test with HT29 colon, with SN12C renal and in the test with 786-0 renal was over 100 µM in each case.

As to `COc1ccc(C2C(Cl)C(=O)N2NC(=O)Cc2ccccc2)cc1OC` (configuration not stated), the TGI in the test on OVCAR-8 ovarian, with RXF 393 renal, in the test with UO-31 renal, with K-562 leukemia, with HT29 colon and in the test on SN12C renal was over 100 µM throughout. In the test on 786-0 renal, this compound gave a TGI of over 100 µM.

In the case of `CC(/C=N/NC1=NCCCN1)=N\NC1=NCCCN1`, the TGI in the test with HOP-92 NSCLC, in the test with OVCAR-8 ovarian, in the test on RXF 393 renal, in the test on UO-31 renal, in the test with SF-539 CNS and in the test on K-562 leukemia was over 100 µM throughout. For the same compound, the TGI in the test with HT29 colon, in the test with SN12C renal and with 786-0 renal was over 100 µM throughout.

`CN1B(c2ccccc2)N(C)C(=O)N(C)C1=O`: the TGI in the test on HOP-92 NSCLC, in the test on OVCAR-8 ovarian, with RXF 393 renal, in the test with UO-31 renal, with SF-539 CNS and in the test with K-562 leukemia was over 100 µM throughout. In addition, the TGI in the test with HT29 colon, in the test on SN12C renal and in the test on 786-0 renal was over 100 µM each time.

For `COc1ccccc1NS(=O)(=O)c1ccc2ncn(NS(=O)(=O)c3ccc(Cl)cc3)c(=O)c2c1`, the TGI in the test with HOP-92 NSCLC, with OVCAR-8 ovarian, in the test on UO-31 renal, in the test on SF-539 CNS, with K-562 leukemia and in the test with HT29 colon was over 100 µM in each case. For the same compound, the TGI with SN12C renal and with 786-0 renal was over 100 µM in each case.

Consider `CC1(C)CC2C(C1=O)C1(C)CCCC2(C)C1=O` (configuration not stated), for which the TGI in the test on HOP-92 NSCLC, with OVCAR-8 ovarian, in the test on UO-31 renal, in the test with SF-539 CNS, in the test with K-562 leukemia and in the test on HT29 colon was over 100 µM in each case. For the same compound, the TGI with SN12C renal and in the test on 786-0 renal was over 100 µM throughout.

`CN1C(=O)N(C)C2(CCN(CCCCCCF)CC2)C1=O`: the TGI with OVCAR-8 ovarian, with RXF 393 renal, in the test on UO-31 renal, with SF-539 CNS, in the test on K-562 leukemia and in the test on HT29 colon was over 100 µM in each case. For the same compound, the TGI in the test with SN12C renal and with 786-0 renal was over 100 µM throughout.

With `C#CCCCC(=O)N(C(=O)CS(=O)CC)c1ccccc1` (configuration not stated), the TGI in the test on HOP-92 NSCLC, in the test with OVCAR-8 ovarian, in the test with RXF 393 renal, with UO-31 renal, in the test on SF-539 CNS and with K-562 leukemia was over 100 µM in each case. Also, the TGI in the test on HT29 colon, in the test on SN12C renal and with 786-0 renal was over 100 µM throughout.

Consider `O=C(Oc1cccc(Cl)c1)c1cc2cc(CCl)ccc2oc1=O`, for which the TGI in the test on HOP-92 NSCLC is 43.1 µM; in the test on OVCAR-8 ovarian, over 100 µM; in the test with RXF 393 renal it was 62.7 µM; in the test with UO-31 renal, over 100 µM; in the test with SF-539 CNS, over 100 µM; in the test on K-562 leukemia it was over 100 µM. Besides, the TGI in the test with HT29 colon, in the test with SN12C renal and in the test with 786-0 renal was over 100 µM throughout.
